Earlier results as cited in patent publication US8138336B2, “Pyrrolotriazine derivatives useful for treating cancer through inhibition of aurora kinase” (Bayer HealthCare LLC, priority 2007, dated 2012).
Where two headings read alike, the source gives them in different places.

System: breast tumors

SMILES: CC(=O)O[C@@]12CO[C@@H]1C[C@H](O)[C@@]1(C)C(=O)[C@H](O)C3=C(C)[C@@H](OC(=O)[C@H](O)[C@@H](NC(=O)OC(C)(C)C)c4ccccc4)C[C@@](O)([C@@H](OC(=O)c4ccccc4)[C@H]21)C3(C)C [Docetaxel]
- response rate to Docetaxel treatment (patients with breast tumors with high Aurora-A mRNA levels): 41%
- response rate to Docetaxel treatment (patients with low Aurora-A mRNA breast tumors): 71%
